# Source: patent US4210749A, “Substituted 1,2,4,5-tetrahydro-3H,3 benzazepines” (priority 1979, dated 1980)
# Structures can show the parent of a compound that is named as a salt.
# What was measured:
# [1] = Analgesic activity, hot plate method; format: in vivo
# [2] = Analgesic activity, writhing method; format: in vivo
# [3] = Analgesic activity in hot plate and writhing tests, overall comparison; conditions: for Analgesic efficacy by route of administration: oral vs parenteral
# [4] = I.P. symptomatology (highest tolerated dose, median lethal dose), Table IV; format: in vivo; conditions: in vivo, ip; for MTD: read-out: HTD (highest tolerated dose)
# [5] = Narcotic antagonism I.P., Table IV; format: in vivo
# [6] = test system: phenylbenzoquinone writhing; assay: Phenylbenzoquinone (PBQ) writhing analgesia, Table IV; format: in vivo; conditions: sc; S.C.; marked * Median effective dose
# sciatic block = assay: Local anesthetic sciatic block, Table IV; format: in vivo; conditions: 1%
# in vivo [7] = assay: in vivo
# in vivo [8] = assay: in vivo; remark: listed apart in the source
# [9] = Mouse tail stimulation (MST), Table IV; format: in vivo; parameters: unit not given here; conditions: S.C.
# morphine analgesia = format: in vivo, rat; conditions: for Narcotic antagonist potency relative to pentazocine: Table II
# [10] = test system: isolated segments of guinea pig ileum (histamine); assay: Antihistaminic activity: block of histamine in isolated segments of guinea pig ileum
# [11] = test system: isolated segments of guinea pig ileum (acetylcholine); assay: Anticholinergic activity: block of acetylcholine in isolated segments of guinea pig ileum
Structure (SMILES),ED50 ([1]; ip) [mg/kg],ED50 ([1]; po) [mg/kg],ED50 ([2]; po) [mg/kg],LD50 [4] [mg/kg],MTD [4] [mg/kg],Narcotic Antagonism [5],Local Anesthetic Sciatic Block (sciatic block),NOAEL (in vivo [7]; po) [mg/kg],LD50 (in vivo [8]; po) [mg/kg],MST (mouse tail stimulation) [9],Conc. for 50% block of Histamine [10] [μg/20 ml],Conc. for 50% block of Acetylcholine [11] [μg/20 ml],other results
"COc1ccc2c(c1)CCN(C)CC2 [Example 18, 7-Methoxy-3-methyl-1,2,4,5-tetrahydro-3H,3-benzazepine]",20,140,> 180,80,25,Negative,–,–,–,–,–,–,ED50 ([2]; sc): > 32 mg/kg; Analgesic efficacy by route of administration [3]: active by the oral route
"COc1ccc2c(c1)CC(C)N(C)CC2 (stereo not drawn) [Example 39, 8-Methoxy-2,3-dimethyl-1,2,4,5-tetrahydro-3H,3-benzazepine hydrochloride]",–,–,–,~150,10,Negative,Positive,–,–,–,–,–,ED50 [6]: > 30 mg/kg
"CC(C)=CCN1CCC2(C)c3cc(O)ccc3CC1C2C (stereo not drawn) [Pentazocine, reference compound]",100,> 316,70,–,–,–,–,316,~800,–,–,–,NOAEL (in vivo [7]; ip): 316 mg/kg; LD50 (in vivo [8]; ip): > 600 mg/kg
"COc1ccc2c(c1)CCN(CC=Cc1ccccc1)CC2 [Example 28, 7-Methoxy-3-(3-phenylallyl)-1,2,4,5-tetrahydro-3H,3-benzazepine]",> 18,125,120,60,20,Positive,–,–,–,10,–,–,Narcotic antagonist potency relative to pentazocine (morphine analgesia): about equipotent to pentazocine; ED50 ([2]; sc): > 18 mg/kg; Analgesic efficacy by route of administration [3]: active by the oral route
"CC(C)=CCN1CCc2ccc(O)cc2CC1 [Example 4, 3-(3,3-Dimethylallyl)-7-hydroxy-1,2,4,5-tetrahydro-3H,3-benzazepine]",–,–,–,96,30,Positive,Positive,–,–,> 56,76,120,Narcotic antagonist potency relative to pentazocine (morphine analgesia): more potent antagonist than pentazocine
"COc1ccc2c(c1)CCN(CCc1ccccc1)CC2 [Example 24, 7-Methoxy-3-phenethyl-1,2,4,5-tetrahydro-3H,3-benzazepine]",12,> 178,> 178,> 200,> 50,–,Positive,178,> 1000,–,10,74,Narcotic antagonist potency relative to pentazocine (morphine analgesia): about equipotent to pentazocine; ED50 ([2]; sc): ~11 mg/kg; Analgesic activity ranking [3]: most active compounds; Separation between effective dose and toxic or lethal doses [3]: greatest separation between effective dose and toxic or lethal doses
"Oc1ccc2c(c1)CCN(CCc1ccccc1)CC2 [Example 25, 7-Hydroxy-3-phenethyl-1,2,4,5-tetrahydro-3H,3-benzazepine]",26,> 178,> 178,–,–,–,–,178,> 1000,–,–,–,–
"Oc1ccc2c(c1)CCN(CC=Cc1ccccc1)CC2 [Example 29, 7-Hydroxy-3-(3-phenylallyl)-1,2,4,5-tetrahydro-3H,3-benzazepine]",230,> 1000,210,–,–,–,–,1000,> 1000,–,–,–,NOAEL (in vivo [7]; ip): 300 mg/kg
"CC1Cc2cc(O)ccc2CCN1CC1CC1 (stereo not drawn) [Example 41, 3-Cyclopropylmethyl-8-hydroxy-2-methyl-1,2,4,5-tetrahydro-3H,3-benzezepine hydrochloride]",–,–,–,~60,~3,Negative,Positive,–,–,> 30,–,–,–
"COc1ccc2c(c1)CCN(CCN1CCN(c3ccccc3)CC1)CC2 [Example 31, 7-Methoxy-3-[2-(4-phenyl-1-piperazinyl)ethyl]-1,2,4,5-tetrahydro-3H,3-benzazepine]",~8,~80,> 100,80,30,Negative,Positive,100,~300,20,–,–,NOAEL (in vivo [7]; ip): 32 mg/kg; Analgesic activity ranking [3]: most active compounds; Separation between effective dose and toxic or lethal doses [3]: greatest separation between effective dose and toxic or lethal doses; LD50 (in vivo [8]; ip): ~80 mg/kg
"COc1ccc2c(c1)CC(C)N(CCN1CCN(c3ccccc3)CC1)CC2 (stereo not drawn) [Example 40, 8-Methoxy-2-methyl-3-[2-(4-phenyl-1-piperazinyl)-ethyl]-1,2,4,5-tetrahydro-3H,3-benzazepine dihydrochloride]",–,–,–,> 100,30,Negative,Positive,–,–,–,–,–,ED50 [6]: > 30 mg/kg
"CC(C)=CCN1CCc2ccc(O)cc2CC1C (stereo not drawn) [Example 34, 3-(3,3-Dimethylallyl)-8-hydroxy-2-methyl-1,2,4,5-tetrahydro-3H,3-benzazepine hydrochloride]",–,–,–,60,10,Positive,Positive,–,–,> 40,–,–,–
"COc1ccc2c(c1)CCN(CC1CC1)CC2 [Example 7, 3-Cyclopropylmethyl-7-methoxy-1,2,4,5-tetrahydro-3H,3-benzazepine]",–,–,–,100,40,Negative,Positive,–,–,–,20,220,–
"C=CCN1CCc2ccc(OC)cc2CC1 [Example 14, 3-Allyl-7-methoxy-1,2,4,5-tetrahydro-3H,3-benzazepine]",42,> 178,> 178,80,60,Positive,Positive,178,> 1000,–,–,–,Narcotic antagonist potency relative to pentazocine (morphine analgesia): about equipotent to pentazocine; ED50 ([2]; sc): > 56 mg/kg
"C=CCN1CC[C@]23c4c5ccc(O)c4O[C@H]2[C@@H](O)C=C[C@H]3[C@H]1C5 [Nalorphine, reference compound]",–,–,–,–,–,–,–,–,–,–,–,–,"Antagonism of Morphine Analgesia, times more active than compounds listed above (morphine analgesia; rat, in vivo, sc): 20-100 times"
"c1ccc2c(c1)CCN(CC1CC1)CC2 [Example 37, 3-Cyclopropylmethyl-1,2,4,5-tetrahydro-3H,3-benzazepine hydrochloride]",12,37,49,60,10,Negative,–,–,–,10,20,540,Writhing test activity relative to pentazocine ([2]; oral route): approximately twice as active as pentazocine; ED50 ([2]; sc): > 18 mg/kg; Analgesic efficacy by route of administration [3]: active by the oral route
"CCCN1CCc2ccc(O)cc2CC1 [Example 23, 7-Hydroxy-3-n-propyl-1,2,4,5-tetrahydro-3H,3-benzazepine]",–,–,–,50,20,Positive,Positive,–,–,–,75,> 1000,–
"COc1ccc2c(c1)CCN(C(C)Cc1ccccc1)CC2 (racemic) [Example 26, 7-Methoxy-3-(1-methyl-2-phenylethyl)-1,2,4,5-tetrahydro-3H,3-benzazepine]",–,–,–,–,–,–,–,–,–,–,54,94,–
"CN1[C@@H]2CC[C@H]1C[C@@H](OC(=O)C(CO)c1ccccc1)C2 (stereo partly drawn) [Atropine, reference compound]",–,–,–,–,–,–,–,–,–,–,37,0.0035,–
